The target of data set [1] is T1, carboxypeptidase B (Homo sapiens, UniProt Q96IY4).
T1 construct: from tissue; host or cells: human plasma (citrated)
T1 sequence (Q96IY4 115-423): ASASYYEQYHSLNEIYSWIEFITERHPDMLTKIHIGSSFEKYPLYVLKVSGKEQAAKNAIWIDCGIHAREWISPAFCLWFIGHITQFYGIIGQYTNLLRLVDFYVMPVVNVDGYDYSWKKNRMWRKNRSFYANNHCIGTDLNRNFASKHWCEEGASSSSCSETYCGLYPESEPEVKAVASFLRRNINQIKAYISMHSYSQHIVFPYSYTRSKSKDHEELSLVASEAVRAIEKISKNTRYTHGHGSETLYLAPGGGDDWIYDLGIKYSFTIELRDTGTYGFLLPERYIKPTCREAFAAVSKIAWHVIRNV
The experiment in a line: Inhibitory activity against carboxypeptidase B (activated pro-CPB partially purified from human plasma, Hip-Arg substrate). Type of data set: biochemical. Particulars: tested substance 500 nM, 25° C. for 60 minutes, absorbance at 405 nm; for inhibition at 0.5 µM: read-out: Carboxypeptidase B inhibitory rates by tested substance at 500 nM. The procedure:
Inhibitory activity of the compounds of the present invention against carboxypeptidase B was measured as follows according to the method described in Thromb. Haemost. 371(1998).
(a) Partial Purification of Carboxypeptidase B Precursor (pro-CPB) from Human Plasma
Human plasma collected over citric acid was added with 80 mM barium chloride and treated at 4° C. for 30 minutes. The supernatant obtained by centrifugation at 10,000 rpm for 20 minutes was dialyzed against 20 mM HEPES buffer containing 0.15 M sodium chloride (pH 7.4). Furthermore, protein in the fractions obtained with 30% to 80% ammonium sulfate were partially purified by chromatography using a Q-Sepharose column (elution with 50 mM tris-HCl buffer (pH 7.4) gradually containing sodium chloride to 0.5 M).
(b) Activation of pro-CPB
pro-CPB (20 μl) was added with 20 μl of a thrombomodulin solution (Thrombomodulin derived from rabbit lung, American Diagnostia Inc., Product No. #237, dissolved at concentration of 300 ng/ml in buffer A as 50 mM tris-HCl buffer (pH 7.4) supplemented with 0.1% Lubrol, 0.1% BSA and 0.15 M sodium chloride), and treated at 25° C. for 3 minutes. Then, the mixture was added with 20 μl of thrombin (Thrombin derived from human plasma, Sigma, Product No. T8885, dissolved at concentration of 3 u/ml in buffer B as 50 mM Tris-HCl buffer (pH 7.4) supplemented with 0.1% BSA, 0.15 M NaCl and 10 mM calcium chloride) and further treated at 25° C. for 30 minutes for activation(*1).
(c) Measurement of CPB Inhibitory Activity
By using a microplate, 4 μl of the sample was added with a mixed solution of 41 μl of buffer C (0.1 M tris-HCl buffer (pH 7.6)) and 25 μl of a substrate solution (Hip-Arg, Sigma, H2508, dissolved in buffer C at concentration of 4 mM.), and further added with 10 μl of the activated CPB solution (*1), and then the mixture was well mixed and allowed to react at 25° C. for 60 minutes. Then, 100 μl of 0.2 M PIPES buffer (pH 7.5) containing 12.5% Tween was added to the mixture to stop the reaction. After 5 minutes, the mixture was added with 100 μl of a coloring solution (2-methoxyethanol containing 1% cyanuryl chloride) and allowed to stand at room temperature for 15 minutes, and then absorbance was measured at 405 nm by using a microplate reader (Bio Rad Model 3550).
Inhibitory activity against carboxypeptidase B was calculated by using the following equation as an inhibitory rate, wherein A represents absorbance in the absence of a tested substance; B represents absorbance in the presence of a tested substance (500 nM); A′ and B′ represent the aforementioned absorbances obtained by using non-activated enzyme without and with the tested substance, respectively.
Inhibitory rate (%)=[1−{(B-B′)/(A-A′)}]×100
The results of the carboxypeptidase B inhibitory rates are shown in Table 1, which were calculated by using the above equation and the results of the measurements in the above experiments for the compounds of the present invention.

The test system of data set [2] is ICR male mice. Put plainly: Toxicity test by single administration. Type of data set: in vivo. Particulars: single intravenous administration in saline, dose of 1 g/kg, ICR male mice of 5 weeks old. The procedure:
Toxicity Test Example by Single Administration
The compound of Example 19 of the present invention was dissolved in saline intravenously administered to 6 individuals of ICR male mice of 5 weeks old.

For the molecule `C[C@H](NC(=O)OCc1ccccc1)P(=O)(O)O[C@@H](CCCCN)C(=O)O` [Example 1, (S)-6-Amino-2-(((R)-1-(benzyloxycarbonylamino)ethyl)(hydroxyphosphinoyl)oxy)hexanoic acid], in data set [1], the inhibition at 0.5 µM turned out to be 30%.

For `CC(C)C(NC(=O)CCc1ccccc1)P(=O)(O)OC(CCCCN)C(=O)O` [Example 2, (S)-6-Amino-2-((2-methyl-1-(3-phenylpropanoylamino)propyl)(hydroxyphosphinoyl)oxy)hexanoic acid], in data set [1], the “Carboxypeptidase B inhibitory rates by tested substance at 500 nM” value is given as above 90%.

As for `CCC(CC)C(NC(=O)CCc1ccccc1)P(=O)(O)OC(CCCCN)C(=O)O` [Example 3, (S)-6-Amino-2-((2-ethyl-1-(3-phenylpropanoylamino)butyl)(hydroxyphosphinoyl)oxy)hexanoic acid], the inhibition at 0.5 µM in data set [1] is above 90%.

Consider `CC(NC(=O)CCc1ccccc1)P(=O)(O)OC(CCCCN)C(=O)O` [Example 4, (S)-6-Amino-2-((1-(3-phenylpropanoylamino)ethyl)(hydroxyphosphinoyl)oxy)hexanoic acid], for which the inhibition at 0.5 µM in data set [1] is above 90%.

`NCCCC[C@H](OP(=O)(O)CNC(=O)CCc1ccccc1)C(=O)O` [Example 5, (S)-6-Amino-2-(((3-phenylpropanoylamino)methyl)(hydroxyphosphinoyl)oxy)hexanoic acid]: the inhibition at 0.5 µM in data set [1] is 30%.

With `NCCCCC(OP(=O)(O)C(NC(=O)CCc1ccccc1)C1CC1)C(=O)O` [Example 6, (S)-6-Amino-2-((1-cyclopropyl(3-phenylpropanoylamino)methyl)(hydroxyphosphinoyl)oxy)hexanoic acid], the inhibition at 0.5 µM in data set [1] is above 90%.

In the case of `CCCC(NC(=O)CCc1ccccc1)P(=O)(O)OC(CCCCN)C(=O)O` [Example 8, (S)-6-Amino-2-((1-(3-phenylpropanoylamino)butyl)(hydroxyphosphinoyl)oxy)hexanoic acid], in data set [1], the inhibition at 0.5 µM was above 90%.

`NCCCCC(OP(=O)(O)C(NC(=O)CCc1ccccc1)C1CCCCC1)C(=O)O` [Example 9, (S)-6-Amino-2-((1-cyclohexyl-1-(3-phenylpropanoylamino)methyl)(hydroxyphosphinoyl)oxy)hexanoic acid]: the inhibition at 0.5 µM in data set [1] is above 90%.

As for `NCCCC[C@H](OP(=O)(O)C(NC(=O)CCc1ccccc1)C1CCC1)C(=O)O` (stereo partly drawn) [Example 10, (S)-6-Amino-2-((1-cyclobutyl-1-(3-phenylpropanoylamino)methyl)(hydroxyphosphinoyl)oxy)hexanoic acid], in data set [1], the inhibition at 0.5 µM was above 90%.

On to `CC(C)CC(NC(=O)CCc1ccccc1)P(=O)(O)OC(CCCCN)C(=O)O` [Example 12, (S)-6-Amino-2-((3-methyl-1-(3-phenylpropanoylamino)butyl)(hydroxyphosphinoyl)oxy)hexanoic acid], for which, in data set [1], the inhibition at 0.5 µM is above 90%.

Take `NCCCC[C@H](OP(=O)(O)C1(NC(=O)CCc2ccccc2)CCCCC1)C(=O)O` [Example 14, (S)-6-Amino-2-((1-(3-phenylpropanoylamino)cyclohexyl)(hydroxyphosphinoyl)oxy)hexanoic acid]: the inhibition at 0.5 µM in data set [1] was above 90%.

As for `CCC(NC(=O)CCc1ccccc1)P(=O)(O)OC(CCCCN)C(=O)O` [Example 16, (S)-6-Amino-2-((1-(3-phenylpropanoylamino)propyl)(hydroxyphosphinoyl)oxy)hexanoic acid], the inhibition at 0.5 µM in data set [1] was above 90%.

For the molecule `CC(C)C(NC(=O)CCc1ccccc1)P(=O)(O)OC(CCCCN)C(=O)O` [Example 19, (S)-6-Amino-2-((2-methyl-(1R)-(3-phenylpropanoylamino)propyl)(hydroxyphosphinoyl)oxy)hexanoic acid], the inhibition at 0.5 µM in data set [1] was above 90%. Also, the “death of the mice or severe toxicity” value in data set [2] was “no death of the mice or severe toxicity was observed”.

In the case of `NCCCC[C@H](OP(=O)(O)C1(NC(=O)CCc2ccccc2)CCCC1)C(=O)O` [Example 20, (S)-6-Amino-2-((1-(3-phenylpropanoylamino)cyclopentyl)(hydroxyphosphinoyl)oxy)hexanoic acid], in data set [1], the inhibition at 0.5 µM was above 90%.

As for `CC(C)(C)CC(NC(=O)CCc1ccccc1)P(=O)(O)OC(CCCCN)C(=O)O` [Example 23, (S)-6-Amino-2-((3,3-dimethyl-1-(3-phenylpropanoylamino)butyl)(hydroxyphosphinoyl)oxy)hexanoic acid], in data set [1], the inhibition at 0.5 µM came to 50%.

As to `CC(C)C(NC(=O)CCCc1ccccc1)P(=O)(O)OC(CCCCN)C(=O)O` [Example 24, (S)-6-Amino-2-(2-methyl-1-(4-phenylbutanoylamino)propyl(hydroxyphosphinoyl)oxy)hexanoic acid], in data set [1], the inhibition at 0.5 µM was above 90%.

With `NCCCCC(OP(=O)(O)C(CCC(F)(F)F)NC(=O)CCc1ccccc1)C(=O)O` [Example 25, (S)-6-Amino-2-((4,4,4-trifluoro-1-(3-phenylpropanoylamino)butyl)(hydroxyphosphinoyl)oxy)hexanoic acid], the inhibition at 0.5 µM in data set [1] turned out to be 80%.

On to `NCCCCC(OP(=O)(O)C(NC(=O)CCc1ccccc1)c1ccccc1)C(=O)O` [Example 34, (S)-6-Amino-2-((1-phenyl-1-(3-phenylpropanoylamino)methyl)(hydroxyphosphinoyl)oxy)hexanoic acid], for which, in data set [1], the inhibition at 0.5 µM stood at 40%.

As for `NCCCCC(OP(=O)(O)C(NC(=O)CCc1ccccc1)C1CCOCC1)C(=O)O` [Example 35, (S)-6-Amino-2-((1-(3-phenylpropanoylamino)-1-(tetrahydropyran-4-yl)methyl)(hydroxyphosphinoyl)oxy)bexanoic acid], the inhibition at 0.5 µM in data set [1] was above 90%.

Turning to `NCCCCC(OP(=O)(O)C(CO)NC(=O)CCc1ccccc1)C(=O)O` [Example 37, (S)-6-Amino-2-((2-hydroxy-1-(3-phenylpropanoylamino)ethyl)(hydroxyphosphinoyl)oxy)hexanoic acid], the inhibition at 0.5 µM in data set [1] stood at 70%.

With `NCCCCC(OP(=O)(O)C(NC(=O)CCc1ccccc1)C1CCNCC1)C(=O)O` [Example 39, (S)-6-Amino-2-((1-(piperidin-4-yl)-1-(3-phenylpropanoylamino)methyl)(hydroxyphosphinoyl)oxy)hexanoic acid], the inhibition at 0.5 µM in data set [1] was above 90%.

On to `NCCCCC(OP(=O)(O)C(CCCN)NC(=O)CCc1ccccc1)C(=O)O` [Example 40, (S)-6-Amino-2-((4-amino-1-(3-phenylpropanoylamino)butyl)(hydroxyphosphinoyl)oxy)hexanoic acid], for which the inhibition at 0.5 µM in data set [1] is 30%.

Regarding `CC1CCC(C(NC(=O)CCc2ccccc2)P(=O)(O)OC(CCCCN)C(=O)O)CC1` [Example 41, (S)-6-Amino-2-((1-(4-methylcyclohexyl)-1-(3-phenylpropanoylamino)methyl)(hydroxyphosphinoyl)oxy)hexanoic acid], the inhibition at 0.5 µM in data set [1] was above 90%.
